The species named for assay [1] is Mus musculus. The assay can be described thus: Induction of antigen-specific immunogenicity in C57BL/6 mouse assessed as induction of pulmonary CD4+ T-lymphocyte responses by measuring spleen ESAT6-specific CD4+ T-lymphocytes producing IL-17 at 14.2 ug, in measured 3 weeks after the final vaccination by immunostaining and flow cytometry. It is filed as functional, organism-based. On the technique in general: A flow cytometer gives signals particle by particle.

The species named for assay [2] is Mus musculus. The assay can be described thus: Induction of antigen-specific immunogenicity in C57BL/6 mouse assessed as induction of pulmonary CD4+ T-lymphocyte responses by measuring lung ESAT6-specific CD4+ T-lymphocytes producing IL-2 at 14.2 ug, in measured 3 weeks after the final vaccination by immunostaining and flow cytometry. It is filed as functional, organism-based.

The subject of assay [3] is Mus musculus. Put plainly: Induction of antigen-specific immunogenicity in C57BL/6 mouse assessed as induction of pulmonary CD4+ T-lymphocyte responses by measuring spleen ESAT6-specific CD4+ T-lymphocytes producing TNFalpha at 56.8 ug, sc measured 3 weeks after the final vaccination by immunostaining and flow cytometry. It is filed as functional, organism-based.
For assay [4], the system named is Mus musculus. The assay can be described thus: Induction of antigen-specific immunogenicity in C57BL/6 mouse assessed as induction of pulmonary CD4+ T-lymphocyte responses by measuring lung ESAT6-specific CD4+ T-lymphocytes producing IL-2 at 56.8 ug, sc measured 3 weeks after the final vaccination by immunostaining and flow cytometry. It counts as functional, organism-based.

In assay [5] the test system is Mus musculus. The assay can be described thus: Induction of antigen-specific immunogenicity in C57BL/6 mouse assessed as induction of pulmonary CD4+ T-lymphocyte responses by measuring spleen ESAT6-specific CD4+ T-lymphocytes producing IFNgamma at 56.8 ug, sc measured 3 weeks after the final vaccination by immunostaining and flow cytometry. It is filed as functional, organism-based.

In assay [6] the test system is Mus musculus. The assay can be described thus: Induction of antigen-specific immunogenicity in C57BL/6 mouse assessed as induction of pulmonary CD4+ T-lymphocyte responses by measuring spleen ESAT6-specific CD4+ T-lymphocytes producing IL-17 at 56.8 ug, sc measured 3 weeks after the final vaccination by immunostaining and flow cytometry. It counts as functional, organism-based.

Assay [7] relates to Mus musculus. The assay can be described thus: Induction of antigen-specific immunogenicity in C57BL/6 mouse assessed as induction of pulmonary CD4+ T-lymphocyte responses by measuring lung ESAT6-specific CD4+ T-lymphocytes producing IL-17 at 56.8 ug, sc measured 3 weeks after the final vaccination by immunostaining and flow cytometry. It counts as functional, organism-based.

Assay [8] is filed under the species Mus musculus. The assay can be described thus: Induction of antigen-specific immunogenicity in C57BL/6 mouse assessed as induction of pulmonary CD4+ T-lymphocyte responses by measuring lung ESAT6-specific CD4+ T-lymphocytes producing INFNgamma at 14.2 ug, in measured 3 weeks after the final vaccination by immunostaining and flow cytometry. It counts as functional, organism-based.

Assay [9] is filed under the species Mus musculus. The assay can be described thus: Induction of antigen-specific immunogenicity in C57BL/6 mouse assessed as induction of pulmonary CD4+ T-lymphocyte responses by measuring lung ESAT6-specific CD4+ T-lymphocytes producing TNFalpha at 14.2 ug, in measured 3 weeks after the final vaccination by immunostaining and flow cytometry. It counts as functional, organism-based.

Assay [10] is filed under the species Mus musculus. The assay can be described thus: Induction of antigen-specific immunogenicity in C57BL/6 mouse assessed as induction of pulmonary CD4+ T-lymphocyte responses by measuring spleen ESAT6-specific CD4+ T-lymphocytes producing TNFalpha at 14.2 ug, in measured 3 weeks after the final vaccination by immunostaining and flow cytometry. It counts as functional, organism-based.

Assay [11] has as its target Toll-like receptor 2 (Homo sapiens) (UniProt O60603). The assay can be described thus: Activation of YFP-tagged TLR2 (unknown origin) expressed in HEK293 cells assessed as induction of IL8 secretion at 33.5 ug/mL incubated for 16 to 18 hrs by ELISA. It counts as cell-based. In general terms: In an ELISA, binding on a coated surface is turned into a signal by an enzyme label.

Assay [12] relates to Mus musculus. Put plainly: Induction of antigen-specific immunogenicity in C57BL/6 mouse assessed as induction of pulmonary CD4+ T-lymphocyte responses by measuring spleen ESAT6-specific CD4+ T-lymphocytes producing IL-2 at 56.8 ug, sc measured 3 weeks after the final vaccination by immunostaining and flow cytometry. It is filed as functional, organism-based.
Assay [13] deals with Mus musculus. Put plainly: Induction of antigen-specific immunogenicity in C57BL/6 mouse assessed as induction of pulmonary CD4+ T-lymphocyte responses by measuring lung ESAT6-specific CD4+ T-lymphocytes producing TNFalpha at 56.8 ug, sc measured 3 weeks after the final vaccination by immunostaining and flow cytometry. It counts as functional, organism-based.
Assay [14] is filed under the species Mus musculus. The assay can be described thus: Induction of antigen-specific immunogenicity in C57BL/6 mouse assessed as induction of pulmonary CD4+ T-lymphocyte responses by measuring spleen ESAT6-specific CD4+ T-lymphocytes producing IL-2 at 14.2 ug, in measured 3 weeks after the final vaccination by immunostaining and flow cytometry. It is filed as functional, organism-based.

The species named for assay [15] is Mus musculus. The assay can be described thus: Induction of antigen-specific immunogenicity in C57BL/6 mouse assessed as induction of pulmonary CD4+ T-lymphocyte responses by measuring lung ESAT6-specific CD4+ T-lymphocytes producing IL-17 at 14.2 ug, in measured 3 weeks after the final vaccination by immunostaining and flow cytometry. It is filed as functional, organism-based.

The test system of assay [16] is Mus musculus. Put plainly: Induction of antigen-specific immunogenicity in C57BL/6 mouse assessed as induction of pulmonary CD4+ T-lymphocyte responses by measuring lung ESAT6-specific CD4+ T-lymphocytes producing IFNgamma at 56.8 ug, sc measured 3 weeks after the final vaccination by immunostaining and flow cytometry. It counts as functional, organism-based.
The species entered for assay [17] is Mus musculus. Put plainly: Induction of antigen-specific immunogenicity in C57BL/6 mouse assessed as induction of pulmonary CD4+ T-lymphocyte responses by measuring spleen ESAT6-specific CD4+ T-lymphocytes producing IFNgamma at 14.2 ug, in measured 3 weeks after the final vaccination by immunostaining and flow cytometry. It counts as functional, organism-based.

The species entered for assay [18] is Mus musculus. The assay can be described thus: Induction of antigen-specific immunogenicity in C57BL/6 mouse assessed as induction of pulmonary CD4+ T-lymphocyte responses by measuring lung ESAT6-specific CD8+ T-lymphocytes producing IL-17 at 10 ug, in measured 3 weeks after the final vaccination by immunostaining and flow cytometry. It is filed as functional, organism-based.

The species named for assay [19] is Mus musculus. The assay can be described thus: Induction of antigen-specific immunogenicity in C57BL/6 mouse assessed as induction of pulmonary CD4+ T-lymphocyte responses by measuring lung ESAT6-specific CD8+ T-lymphocytes producing IL-2 at 10 ug, in measured 3 weeks after the final vaccination by immunostaining and flow cytometry. It counts as functional, organism-based.

The species named for assay [20] is Mus musculus. Put plainly: Induction of antigen-specific immunogenicity in C57BL/6 mouse assessed as induction of pulmonary CD4+ T-lymphocyte responses by measuring lung ESAT6-specific CD8+ T-lymphocytes producing TNFalpha at 10 ug, in measured 3 weeks after the final vaccination by immunostaining and flow cytometry. It counts as functional, organism-based.
For assay [21], the system named is Mus musculus. Put plainly: Induction of antigen-specific immunogenicity in C57BL/6 mouse assessed as induction of pulmonary CD4+ T-lymphocyte responses by measuring spleen ESAT6-specific CD8+ T-lymphocytes producing TNFalpha at 10 ug, sc measured 3 weeks after the final vaccination by immunostaining and flow cytometry. It counts as functional, organism-based.

Assay [22] has as its target Toll-like receptor 2 (Homo sapiens) (UniProt O60603). Put plainly: Activation of YFP-tagged TLR2 (unknown origin) expressed in HEK293 cells assessed as induction of IL8 secretion at 8 ug/mL incubated for 16 to 18 hrs by ELISA. It is filed as cell-based.
Assay [23] is filed under the species Mus musculus. Put plainly: Induction of antigen-specific immunogenicity in C57BL/6 mouse assessed as induction of pulmonary CD4+ T-lymphocyte responses by measuring lung ESAT6-specific CD8+ T-lymphocytes producing IFNgamma at 10 ug, in measured 3 weeks after the final vaccination by immunostaining and flow cytometry. It is filed as functional, organism-based.

Assay [24] deals with Mus musculus. The assay can be described thus: Induction of antigen-specific immunogenicity in C57BL/6 mouse assessed as induction of pulmonary CD4+ T-lymphocyte responses by measuring spleen ESAT6-specific CD8+ T-lymphocytes producing IFNgamma at 10 ug, sc measured 3 weeks after the final vaccination by immunostaining and flow cytometry. It counts as functional, organism-based.

The text below walks through data of ChEMBL document CHEMBL4373704, “Mucosal Vaccination with a Self-Adjuvanted Lipopeptide Is Immunogenic and Protective against Mycobacterium tuberculosis” (J Med Chem, 2019).

Calls of active or inactive are those of the source. The rule behind the calls is not given here.

Toll-like receptor 2 (Homo sapiens), sequence (O60603 whole entry): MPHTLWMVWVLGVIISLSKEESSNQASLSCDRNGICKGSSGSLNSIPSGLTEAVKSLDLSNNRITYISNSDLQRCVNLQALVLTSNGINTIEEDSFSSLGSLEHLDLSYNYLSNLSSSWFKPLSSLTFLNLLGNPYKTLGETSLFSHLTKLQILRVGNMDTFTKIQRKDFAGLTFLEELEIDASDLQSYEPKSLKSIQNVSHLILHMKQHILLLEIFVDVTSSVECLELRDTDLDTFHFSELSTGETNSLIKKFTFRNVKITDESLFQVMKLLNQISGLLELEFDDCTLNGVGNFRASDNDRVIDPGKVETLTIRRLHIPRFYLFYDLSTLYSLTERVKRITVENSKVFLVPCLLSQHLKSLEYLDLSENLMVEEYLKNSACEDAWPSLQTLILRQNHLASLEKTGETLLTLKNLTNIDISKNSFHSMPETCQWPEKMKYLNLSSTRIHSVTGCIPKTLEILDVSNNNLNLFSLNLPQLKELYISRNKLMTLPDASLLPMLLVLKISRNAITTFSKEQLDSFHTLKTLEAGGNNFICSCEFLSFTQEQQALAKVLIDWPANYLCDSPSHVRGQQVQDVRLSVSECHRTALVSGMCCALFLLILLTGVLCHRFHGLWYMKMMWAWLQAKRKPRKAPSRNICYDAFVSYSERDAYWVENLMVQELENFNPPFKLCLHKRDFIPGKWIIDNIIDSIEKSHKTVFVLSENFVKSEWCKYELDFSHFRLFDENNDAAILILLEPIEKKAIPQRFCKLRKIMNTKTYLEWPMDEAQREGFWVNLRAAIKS

Consider `CCCCCCCCCCCCCCCC(=O)OC[C@H](CSC[C@H](N)C(=O)N[C@@H](CO)C(=O)N[C@@H](CCCCN)C(=O)N[C@@H](CCCCN)C(=O)N[C@@H](CCCCN)C(=O)N[C@@H](CCCCN)C(=O)NCCOCCOCC(=O)N[C@@H](CCSC)C(=O)N[C@H](C(=O)N[C@@H](CCC(=O)O)C(=O)N[C@@H](CCC(N)=O)C(=O)N[C@@H](CCC(N)=O)C(=O)N[C@@H](Cc1c[nH]c2ccccc12)C(=O)N[C@@H](CC(N)=O)C(=O)N[C@@H](Cc1ccccc1)C(=O)N[C@@H](C)C(=O)NCC(=O)N[C@H](C(=O)N[C@@H](CCC(=O)O)C(=O)N[C@@H](C)C(=O)N[C@@H](C)C(=O)N[C@@H](C)C(=O)N[C@@H](CO)C(=O)N[C@@H](C)C(=O)N[C@H](C(=O)N[C@@H](CCC(N)=O)C(=O)NCC(=O)N[C@@H](CCC(N)=O)C(=O)N[C@H](C(=O)N[C@@H](CCSC)C(=O)N[C@@H](Cc1ccc(O)cc1)C(=O)N[C@@H](CC(N)=O)C(=O)N[C@@H](Cc1ccc(O)cc1)C(=O)N1CCC[C@H]1C(=O)N[C@@H](C)C(=O)N[C@@H](CCSC)C(=O)O)[C@@H](C)CC)[C@@H](C)CC)[C@@H](C)CC)[C@@H](C)O)OC(=O)CCCCCCCCCCCCCCC`, for which the result in the assay filed under Mus musculus [1], in the assay listed under Mus musculus [2], in the assay with Mus musculus [3], in the assay listed under Mus musculus [8], in the assay listed under Mus musculus [9] and in the assay filed under Mus musculus [10] was Active. The result (in assay [11]; with Mus musculus [12]; in the assay filed under Mus musculus [14]; in the assay listed under Mus musculus [15]; in the assay listed under Mus musculus [17]) was Active. The result in the assay on Mus musculus [4], with Mus musculus [5], in the assay on Mus musculus [6], in the assay with Mus musculus [7], in the assay with Mus musculus [13] and with Mus musculus [16] was inactive.
For the compound H-QIMYNYPAM-OH, the result (in the assay filed under Mus musculus [18]; in the assay listed under Mus musculus [19]; in the assay filed under Mus musculus [20]; in [22]; in the assay listed under Mus musculus [23]) was inactive. The outcome in the assay with Mus musculus [21] and in the assay with Mus musculus [24] was Active.
